Results on nine molecules are retold here after patent US6358984B1, “2,4-dioxopyrrolidine and 2,4-dioxotetrahydrofuran derivatives and medicines containing the same as the active ingredient” (Lead Chemical Co., Ltd., priority 1996, dated 2002).

Like-named read-outs stand apart in the source and are kept apart here.

Data set [1] concerns hypertension caused by angiotensin II. Briefly: Inhibition effect in the hypertension caused by angiotensin II using rats. The class given is in vivo, rat. The note with it: Rattus norvegicus, iv, i. v., male SD rats, angiotensin II 100 ng/kg. How it is done:
Male SD rats (age; 11 weeks; 310 to 330 g) Were used, and indwelling cannula were placed in the femoral aorta and the vena cava, under anesthesia with inactin. The arterial cannula was connected to a pressure transducer to record the blood pressure via a carrier amplifier (AP-601G Japan Photoelectronics) using a polygraph system (RM-6000 Japan Photoelectronics). Prior to tests using the test compounds, 100 ng/kg-equivalent angiotensin II (50 μl of serum solution from the rat) was administered using a regular-pulse cannula to check the hypertensive action. Then, 30 minutes later, a 1 mg/kg-equivalent test compound (50 μl of serum solution from the rat) was administered using the regular-pulse cannula, and similar administration of angiotensin II was performed 5 and 60 minutes later to check the corresponding hypertensive action. The hypertensive effect resulting from the administration of only angiotensin II was taken as a reference value of 100% to determine the antihypertensive rates of the test compounds.

The target of data set [2] is T1, angiotensin II receptor (Oryctolagus cuniculus, UniProt P34976).
T1 construct: fraction of angiotensin II receptor membrane ([…]) prepared from rabbit adrenal gland; from tissue; host or cells: rabbit adrenal gland membrane fraction
T1 sequence (P34976 1-359): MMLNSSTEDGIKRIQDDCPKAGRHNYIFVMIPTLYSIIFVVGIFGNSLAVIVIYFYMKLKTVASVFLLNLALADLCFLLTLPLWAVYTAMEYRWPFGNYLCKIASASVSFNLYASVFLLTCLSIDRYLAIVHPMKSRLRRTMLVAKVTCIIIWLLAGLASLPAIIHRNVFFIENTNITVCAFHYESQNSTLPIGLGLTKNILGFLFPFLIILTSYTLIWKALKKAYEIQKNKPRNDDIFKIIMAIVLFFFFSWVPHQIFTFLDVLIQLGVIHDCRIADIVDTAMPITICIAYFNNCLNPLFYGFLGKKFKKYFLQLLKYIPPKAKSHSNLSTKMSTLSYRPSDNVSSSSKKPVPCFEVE
Briefly: Binding inhibition of 3H labeled angiotensin II to angiotensin II receptor membrane fraction. More on the design: species or system rabbit. Particulars: for IC50: rabbit adrenal gland membrane, 3H labeled angiotensin II 10^-9M, read-out: Receptor binding inhibition effect IC50. The method, then: The method of Cox et. al (Biochemical Pharmacology 33, 4057-4064 (1984) was modified to conduct angiotensin II receptor binding inhibition experiments. The present compounds (10^−5M to 10^−9M) and ^3H labeled angiotensin II (10^−9M) were added to a fraction of angiotensin II receptor membrane ([…]) prepared from rabbit adrenal gland and were allowed to react in a 20 mM Tris HCl buffer (pH: 7.0) containing 120 mM NaCl, 5 mM EDTA, 0.1 mM PMSF, and 0.2% BSA at 30° C. for 20 minutes so that the final volume was 540 μl. Then, the reaction mixture was quickly passed through a filter (whatman GF/B), and the filter was then rinsed three times in 4 ml of the buffer cooled in ice. Then, the radioactivity of receptor binding ^3H labeled angiotensin II captured on the filter was measured using a liquid scintillation counter. The angiotensin II receptor binding inhibition activity of the present compounds was evaluated based on the concentration (IC 50) required to replace 50% of the total amount of specifically binding ^3H labeled angiotensin II.

The test system of data set [3] is male ICR mice. Briefly: Acute toxicity tests using male ICR mice. The class given is in vivo. The note with it: 250, 500 and 1,000 mg/kg orally, dissected after 21 days. The method, then:
Acute toxicity tests of the compounds 1d and 2d described in table 1 were carried out. […] As a result, in each administration group, no mouse died whichever compound had been administered.

For data set [4], the system named is aortae of guinea pigs. Briefly: Inhibition of vascular contraction caused by angiotensin II using pieces of the aortae of guinea pigs. The class given is cell-based. The note with it: Cavia porcellus; guinea pig chest aorta, contraction induced by angiotensin II; read-out: Vascular contraction inhibition effect IC50. How it is done:
Male Hartly guinea pigs (350 to 400 g) were contused on the head and sacrificed by allowing their blood to discharge from the arteria carotis communis. Immediately after death, the chest aorta was removed. A spiral sample of width 2 to 3 mm and length 20 to 25 mm was cut from the aorta, and was suspended in 4.5 ml of Krebs-Henseleit (K-H) solution (120 mM NaCl, 4.7 mM KCl, […], 1.2 mM KH2PO4, 2.5 mM CaCl2, 25 mM NaHCO3, and 10 mM glucose) in a Magnus vessel. The K-H solution in the Magnus vessel was maintained at 37° C., and a mixture gas of 95% O2 and 5% CO2 was continuously bubbled through the solution. First, 1 g of initial tension was applied to the sample, which was then left to stand rest for about 30 minutes, and 45 μl of 4M KCl solution was added to the solution to induce contraction. After contraction had stabilized, a washing operation was performed to replace the K-H solution. Then, after the sample was left to stand for 30 minutes, 45 μl of solvent DMSO was added to incubate the sample for 15 minutes, and 45 μl of angiotensin II solution (3×10^−8M) was added to induce contraction. This operation was repeated three times and 100% contraction was used as the average. Subsequently, the sample was stabilized by washing. Then, a 45 μl sample of each test compound prepared for each concentration (3×10^−5M to 10^−7M) using DMSO as a solvent was used to observe the inhibition effect of angiotensin II on vascular contraction by performing the same operation as described above. The contraction reaction was recorded on a recorder (RTA-1100, Japan Photoelectronics) via an equi-scale pressure transducer (TB-651T, Japan Photoelectronics). The angiotensin II inhibition effects of the test compounds were evaluated using the IC50 value.

Setting [5] is: 5 min, 5 minutes after administration, read-out: Inhibition effect in the hypertension by angiotensin II, 5 minutes after administration.
Setting [6] is: 1 h, 60 minutes after administration, read-out: Inhibition effect in the hypertension by angiotensin II, 60 minutes after administration.

What is called IC50 is the concentration that inhibits the measured activity by half. The melting point is the temperature, or range, at which the solid turns liquid.

Turning to `CCCCc1nc(CCCC)n(Cc2ccc(-c3ccccc3/C=C3\NC(=O)CC3=O)cc2)n1` [Compound 1d, 3,5-Dibutyl-1-[2′-[(2,4-dioxopyrrolidine-5(Z)-ylidene)methyl]biphenyl-4-yl]methyl-1H-1,2,4-triazole], the results for the inhibition in vivo at 1 mg/kg in data set [1] (setting [5]) and in data set [1] (setting [6]) were ≥ 70% and 30 to 70%, respectively. For the same molecule, the “Angiotensin II receptor antagonism (in words)” value in data set [2] is “distinct angiotensin II receptor antagonism”. Further, the IC50 is 130 nM in data set [2] and 1400 nM in data set [4]. Besides, the “Findings on dissection at the end of the observation period” value in data set [3] is “no abnormality”.
For the molecule `CCCCc1nc(CCc2ccccc2)nn1Cc1ccc(-c2ccccc2/C=C2\NC(=O)CC2=O)cc1` [Compound 1f, 5-Butyl-3-(2-phenylethyl)-1-[2′-[(2,4-dioxopyrrolidine-5(Z)-ylidene)methyl]biphenyl-4-yl]methyl-1H-1,2,4-triazole], the melting point lay within 188 to 189 °C. Also, the inhibition in vivo at 1 mg/kg in data set [1] (setting [5]) was in the range of 30 to 70%. In data set [1] (setting [6]), the inhibition in vivo at 1 mg/kg fell in the range of 30 to 70%. Also, the IC50 in data set [2] was 150 nM. Moreover, the IC50 in data set [4] amounted to 87900 nM.
Take `CCCc1nc(CCC)n(Cc2ccc(-c3ccccc3/C=C3\OC(=O)C=C3O)cc2)n1` [Compound 2a, 3,5-Dipropyl-1-[2′-[(4-hydroxy-2(5H)-furanone-5(Z)-ylidene)methyl]biphenyl-4-yl]methyl-1H-1,2,4-triazole]: the melting point was in the range of 160 to 161 °C. The inhibition in vivo at 1 mg/kg in data set [1] (setting [5]) was 30 to 70%. Further, the inhibition in vivo at 1 mg/kg in data set [1] (setting [6]) is < 10%. In addition, the IC50 in data set [2] came out at 110 nM. In data set [4], the IC50 was 16900 nM.
On the same counts, the results for `CCCCc1nc(C2CC2)nn1Cc1ccc(-c2ccccc2/C=C2\OC(=O)C=C2O)cc1` [Compound 2c, 5-Butyl-3-cyclopropyl-1-[2′-[(4-hydroxy-2(5H)-furanone-5(Z)-ylidene)methyl]biphenyl-4-yl]methyl-1H-1,2,4-triazole] are 168 to 170 °C, 10 to 30%, < 10%, 150 nM and > 300000 nM.
`CCCCc1nc(CCCC)n(Cc2ccc(-c3ccccc3/C=C3\OC(=O)C=C3O)cc2)n1` [Compound 2d]: the inhibition in vivo at 1 mg/kg is 30 to 70% in data set [1] (setting [5]) and 10 to 30% in data set [1] (setting [6]). Moreover, the “Angiotensin II receptor antagonism (in words)” value in data set [2] is “distinct angiotensin II receptor antagonism”. In addition, the IC50 in data set [2] was found to be 46 nM; in data set [4] it was 4500 nM. For the same molecule, in data set [3], the “Findings on dissection at the end of the observation period” value is “no abnormality”.
`CCCCc1nc(-c2ccccc2)nn1Cc1ccc(-c2ccccc2/C=C2\OC(=O)C=C2O)cc1` [Compound 2e, 5-Butyl-3-phenyl-1-[2′-[(4-hydroxy-2(5H)-furanone-5(Z)-ylidene)methyl]biphenyl-4-yl]methyl-1H-1,2,4-triazole] displayed a melting point of 188 to 189 °C. The inhibition in vivo at 1 mg/kg in data set [1] (setting [5]) was 30 to 70%. In addition, in data set [1] (setting [6]), the inhibition in vivo at 1 mg/kg lay within 30 to 70%. In addition, in data set [2], the IC50 is 180 nM. Moreover, the IC50 in data set [4] worked out at 154000 nM.
`CCCCc1nc(CCc2ccccc2)nn1Cc1ccc(-c2ccccc2/C=C2\OC(=O)C=C2O)cc1` [Compound 2f, 5-Butyl-3-(2-phenylethyl)-1-[2′-[(4-hydroxy-2(5H)-furanone-5(Z)-ylidene)methyl]biphenyl-4-yl]methyl-1H-1,2,4-triazole] yielded a melting point of 184 to 185 °C. Moreover, in data set [1] (setting [5]), the inhibition in vivo at 1 mg/kg lay in the range of 30 to 70%. The inhibition in vivo at 1 mg/kg in data set [1] (setting [6]) was < 10%. Also, the IC50 in data set [2] came to 11 nM. The IC50 in data set [4] was > 300000 nM.
On the same counts, the results for `CCCCc1nc(-c2ccco2)nn1Cc1ccc(-c2ccccc2/C=C2\OC(=O)C=C2O)cc1` [Compound 2j, 5-Butyl-(furan-2-yl)-1-[2′-[(4-hydroxy-2(5H)-furanone-5(Z)-ylidene)methyl]biphenyl-4-yl]methyl-1H-1,2,4-triazole] are 172 to 173 °C, < 10%, < 10%, 280 nM and > 300000 nM.
The matching figures for `CCCCc1nc(-c2cccs2)nn1Cc1ccc(-c2ccccc2/C=C2\OC(=O)C=C2O)cc1` [Compound 2k, 5-Butyl-3-(thiophene-2-yl)-1-[2′-[(4-hydroxy-2(5H)-furanone-5(Z)-ylidene)methyl]biphenyl-4-yl]methyl-1H-1,2,4-triazole]: 179 to 180 °C, 10 to 30%, < 10%, 310 nM and > 300000 nM.
